In brackets after ≈: the same amount, converted by molar mass. Activity calls are given as the source filed them. The calls are words filed in the database; no cut-off is given here. Where a SMILES comes first, the peptide text is derived from it. Bridges are numbered along the chain shown (N, C = ends). [ ]: non-standard residue; d: D form. The star is where a group is joined. X1 = CC[C@H](C)CCCCC(=O)*; dDab = NCC[C@@H](N)C(=O)O; Dab = NCC[C@H](N)C(=O)O
Experiments:
[1] = Toxicity in Balb/c mouse assessed as inflammatory cell infiltration in liver at 20 mg/kg, ip measured after 7 days by H and E staining based analysis; type: organism-based; details: in vivo, 168 h, time 7 day
[2] = Toxicity in Balb/c mouse assessed as change in liver co-efficient at 20 mg/kg, ip measured after 7 days; type: organism-based; details: in vivo, 168 h, time 7 day
[3] = Toxicity in Balb/c mouse assessed as spleen atrophy at 20 mg/kg, ip measured after 7 days; type: organism-based; details: in vivo, 168 h, time 7 day
[4] = Toxicity in Balb/c mouse assessed as cell swelling in lung at 20 mg/kg, ip measured after 7 days by H and E staining based analysis; type: organism-based; details: in vivo, 168 h, time 7 day
[5] = Toxicity in Balb/c mouse assessed as cell swelling in kidney at 20 mg/kg, ip measured after 7 days by H and E staining based analysis; type: organism-based; details: in vivo, 168 h, time 7 day
[6] = Toxicity in Balb/c mouse assessed as change in serum AST level at 20 mg/kg, ip measured after 7 days; type: organism-based; details: in vivo, 168 h, time 7 day
[7] = Toxicity in Balb/c mouse assessed as cell swelling in liver at 20 mg/kg, ip measured after 7 days by H and E staining based analysis; type: organism-based; details: in vivo, 168 h, time 7 day
[8] = Toxicity in Balb/c mouse assessed as kidney atrophy at 20 mg/kg, ip measured after 7 days; type: organism-based; details: in vivo, 168 h, time 7 day
[9] = Toxicity in Balb/c mouse assessed as cell swelling in spleen at 20 mg/kg, ip measured after 7 days by H and E staining based analysis; type: organism-based; details: in vivo, 168 h, time 7 day
[10] = Toxicity in Balb/c mouse assessed as change in serum CREA level at 20 mg/kg, ip measured after 7 days; type: organism-based; details: in vivo, 168 h, time 7 day
[11] = Toxicity in Balb/c mouse assessed as inflammatory cell infiltration in kidney at 20 mg/kg, ip measured after 7 days by H and E staining based analysis; type: organism-based; details: in vivo, 168 h, time 7 day
[12] = Toxicity in Balb/c mouse assessed as kidney pigmentation at 20 mg/kg, ip measured after 7 days; type: organism-based; details: in vivo, 168 h, time 7 day
[13] = Toxicity in Balb/c mouse assessed as change in serum ALT level at 20 mg/kg, ip measured after 7 days; type: organism-based; details: in vivo, 168 h, time 7 day
[14] = Toxicity in Balb/c mouse assessed as change in serum BUN level at 20 mg/kg, ip measured after 7 days; type: organism-based; details: in vivo, 168 h, time 7 day
[15] = Toxicity in Balb/c mouse assessed as spleen pigmentation at 20 mg/kg, ip measured after 7 days; type: organism-based; details: in vivo, 168 h, time 7 day
Staphylococcus aureus [16] = experiment: (§1) Antibacterial activity against methicillin-resistant Staphylococcus aureus ATCC 33591 infected in Balb/c mouse model of skin wound infection assessed as reduction in TNF-alpha activity in skin at 10 mg/kg, ip administered thrice at 1, 24 and 48 hrs post-infection measured after 14 days by IHC analysis; type: functional, organism-based; details: time 14.0 day
Staphylococcus aureus [17] = experiment: as §1, with “IL-1beta” for “TNF-alpha”; type: functional, organism-based; details: time 14.0 day
Staphylococcus aureus [18] = experiment: Antibacterial activity against methicillin-resistant Staphylococcus aureus ATCC 33591 infected in Balb/c mouse model of acute systemic infection at 10 mg/kg, ip measured after 5 days; type: functional, organism-based; details: time 5.0 day
Staphylococcus aureus [19] = experiment: Antibacterial activity against methicillin-resistant Staphylococcus aureus ATCC 33591 infected in Balb/c mouse model of pneumonia infection assessed as reduction in bacterial load in lung at 10 mg/kg, ip administered thrice at 4, 8 and 12 hrs post-infection measured after 24 hrs post-infection; type: functional, organism-based; details: time 20.0 hrs
Staphylococcus aureus [20] = experiment: (§2) Antibacterial activity against methicillin-resistant Staphylococcus aureus ATCC 33591 infected in Balb/c mouse model of pneumonia infection assessed as reduction in IL-1beta activity in lung at 10 mg/kg, ip administered thrice at 4, 8 and 12 hrs post-infection measured after 24 hrs post-infection by IHC analysis; type: functional, organism-based; details: time 20.0 hrs
Staphylococcus aureus [21] = experiment: Antibacterial activity against methicillin-resistant Staphylococcus aureus ATCC 33591 infected in Balb/c mouse model of skin wound infection assessed as reduction in bacterial load in skin at 10 mg/kg, ip administered thrice at 1, 24 and 48 hrs post-infection measured after 72 hrs post-infection; type: functional, organism-based; details: time 71.0 hrs
Staphylococcus aureus [22] = experiment: as §2, with “bleeding” for “IL-1beta activity”, “H and E staining based” for “IHC”; type: functional, organism-based; details: time 20.0 hrs
Staphylococcus aureus [23] = experiment: as §2, with “alveolar contraction” for “IL-1beta activity”, “H and E staining based” for “IHC”; type: functional, organism-based
Staphylococcus aureus [24] = experiment: as §1, with “in keratosis” for “in TNF-alpha activity”, “in wound surface” for “in skin”; type: functional, organism-based; details: time 14.0 day
Staphylococcus aureus [25] = experiment: as §2, with “inflammatory cell infiltration” for “IL-1beta activity”, “H and E staining based” for “IHC”; type: functional, organism-based; details: time 20.0 hrs
Staphylococcus aureus [26] = experiment: as §1, with “inflammatory cell infiltration” for “TNF-alpha activity”, “H and E staining based” for “IHC”; type: functional, organism-based; details: time 14.0 day
Staphylococcus aureus [27] = experiment: as §2, with “TNF-alpha” for “IL-1beta”; type: functional, organism-based; details: time 20.0 hrs
Staphylococcus aureus [28] = experiment: Induction of drug resistance in Staphylococcus aureus ATCC 25923 assessed as fold increase in MIC at sub-MIC measured after 10 passages relative to control; type: functional
Staphylococcus aureus [29] = experiment: Antibacterial activity against methicillin-resistant Staphylococcus aureus ATCC 33591 incubated for 18 to 24 hrs by broth microdilution method; type: functional; details: time 18-24 hrs
Staphylococcus aureus [30] = experiment: Antibacterial activity against Staphylococcus aureus ATCC 25923 incubated for 18 to 24 hrs by broth microdilution method; type: functional; details: time 18-24 hrs
[31] = test system: Staphylococcus epidermidis; experiment: Antibacterial activity against Staphylococcus epidermidis ATCC 12228 incubated for 18 to 24 hrs by broth microdilution method; type: functional; details: time 18-24 hrs
Staphylococcus aureus [32] = experiment: Induction of drug resistance in methicillin-resistant Staphylococcus aureus ATCC 33591 assessed as fold increase in MIC at sub-MIC measured after 14 passages relative to control; type: functional
Staphylococcus aureus [33] = experiment: Antibacterial activity against Staphylococcus aureus ATCC 29213 incubated for 18 to 24 hrs by broth microdilution method; type: functional; details: time 18-24 hrs
Staphylococcus aureus [34] = experiment: Induction of drug resistance in Staphylococcus aureus ATCC 25923 at sub-MIC measured after 2 passages; type: functional, organism-based
Enterococcus faecalis = experiment: Antibacterial activity against Enterococcus faecalis ATCC 29212 incubated for 18 to 24 hrs by broth microdilution method; type: functional; details: time 18-24 hrs
Staphylococcus aureus [35] = experiment: Antibacterial activity against ciprofloxacin-resistant Staphylococcus aureus ATCC 25923 incubated for 18 to 24 hrs; type: functional; details: time 18-24 hrs
Staphylococcus aureus [36] = experiment: Antibacterial activity against drug-resistant Staphylococcus aureus ATCC 25923 incubated for 18 to 24 hrs; type: functional; details: time 18-24 hrs
Staphylococcus aureus [37] = experiment: Induction of drug resistance in methicillin-resistant Staphylococcus aureus ATCC 33591 assessed as fold increase in MIC at sub-MIC measured after 8 passages relative to control; type: functional
Staphylococcus aureus [38] = experiment: Antibacterial activity against ciprofloxacin-resistant methicillin-resistant Staphylococcus aureus ATCC 33591 incubated for 18 to 24 hrs; type: functional; details: time 18-24 hrs
Staphylococcus aureus [39] = experiment: Antibacterial activity against polymyxin B-resistant methicillin-resistant Staphylococcus aureus ATCC 33591 incubated for 18 to 24 hrs; type: functional; details: time 18-24 hrs
Staphylococcus aureus [40] = experiment: Antibacterial activity against drug-resistant methicillin-resistant Staphylococcus aureus ATCC 33591 incubated for 18 to 24 hrs; type: functional; details: time 18-24 hrs
Staphylococcus aureus [41] = experiment: Antibacterial activity against polymyxin B-resistant Staphylococcus aureus ATCC 25923 incubated for 18 to 24 hrs; type: functional; details: time 18-24 hrs
Staphylococcus aureus [42] = experiment: Induction of drug resistance in Staphylococcus aureus ATCC 25923 assessed as fold increase in MIC at sub-MIC measured after 7 passages relative to control; type: functional
Staphylococcus aureus [43] = experiment: Induction of drug resistance in methicillin-resistant Staphylococcus aureus ATCC 33591 at sub-MIC measured after 4 passages; type: functional, organism-based

CC(C)CCCCC(=O)N[C@@H](CCN)C(=O)N[C@H](C(=O)N[C@@H](CCN)C(=O)N[C@H]1CCNC(=O)[C@H]([C@@H](C)O)NC(=O)[C@H](CCN)NC(=O)[C@H](CCN)NC(=O)[C@H](CC(C)C)NC(=O)[C@@H](Cc2ccccc2)NC(=O)[C@H](CCN)NC1=O)[C@@H](C)O.CC[C@H](C)CCCCC(=O)N[C@@H](CCN)C(=O)N[C@H](C(=O)N[C@@H](CCN)C(=O)N[C@H]1CCNC(=O)[C@H]([C@@H](C)O)NC(=O)[C@H](CCN)NC(=O)[C@H](CCN)NC(=O)[C@H](CC(C)C)NC(=O)[C@@H](Cc2ccccc2)NC(=O)[C@H](CCN)NC1=O)[C@@H](C)O (X1-[Dab]T[Dab][Dab][Dab][dF]L[Dab][Dab]T; lactam 4-C)
Activity [1]: Toxic | Activity [2]: Toxic | Activity [3]: Toxic | Activity [4]: Toxic | Activity [5]: Toxic | Activity [6]: Non-toxic | Activity [7]: Toxic | Activity [8]: Toxic | Activity [9]: Toxic | Activity [10]: Toxic | Activity [11]: Toxic | Activity [12]: Toxic | Activity [13]: Non-toxic | Activity [14]: Non-toxic | Activity [15]: Toxic

CC(C)CCCCC(=O)N[C@@H](CCN)C(=O)N[C@H](C(=O)N[C@@H](CCN)C(=O)N[C@H]1CCNC(=O)[C@H]([C@@H](C)O)NC(=O)[C@H](CCN)NC(=O)[C@H](CCN)NC(=O)[C@H](CC(C)C)NC(=O)[C@@H](Cc2ccccc2)NC(=O)[C@@H](CCN)NC1=O)[C@@H](C)O.CC[C@H](C)CCCCC(=O)N[C@@H](CCN)C(=O)N[C@H](C(=O)N[C@@H](CCN)C(=O)N[C@H]1CCNC(=O)[C@H]([C@@H](C)O)NC(=O)[C@H](CCN)NC(=O)[C@H](CCN)NC(=O)[C@H](CC(C)C)NC(=O)[C@@H](Cc2ccccc2)NC(=O)[C@@H](CCN)NC1=O)[C@@H](C)O (X1-[Dab]T[Dab][Dab][dDab][dF]L[Dab][Dab]T; lactam 4-C)
Activity (Staphylococcus aureus [16]): Active | Activity (Staphylococcus aureus [17]): Active | Activity (Staphylococcus aureus [18]): Active | Activity (Staphylococcus aureus [19]): Active | Activity (Staphylococcus aureus [20]): Active | Activity (Staphylococcus aureus [21]): Active | Activity (Staphylococcus aureus [22]): Active | Activity (Staphylococcus aureus [23]): inactive | Activity (Staphylococcus aureus [24]): Active | Activity (Staphylococcus aureus [25]): Active | Activity (Staphylococcus aureus [26]): Active | Activity (Staphylococcus aureus [27]): Active

C[C@@H](O)[C@H]1C(=O)N2C(C(=O)O)=C(SCCNC=N)C[C@H]12 [IMIPENEM ANHYDROUS]
fold change (FC) (Staphylococcus aureus [28]): 2048 | MIC (Staphylococcus aureus [29]): 32 µM (≈ 9.58 µg/mL) | MIC (Staphylococcus aureus [30]): 4 µM (≈ 1.2 µg/mL) | MIC [31]: 4 µM (≈ 1.2 µg/mL) | fold change (FC) (Staphylococcus aureus [32]): 64 | MIC (Staphylococcus aureus [33]): 2 µM (≈ 0.599 µg/mL) | Activity (Staphylococcus aureus [34]): Active | MIC (Enterococcus faecalis): 2 µM (≈ 0.599 µg/mL)

CNC(C)[C@@H]1CC[C@@H](N)[C@@H](O[C@H]2[C@H](O)[C@@H](O[C@H]3OC[C@](C)(O)[C@H](NC)[C@H]3O)[C@H](N)C[C@@H]2N)O1.CN[C@@H]1[C@@H](O)[C@@H](O[C@@H]2[C@@H](O)[C@H](O[C@H]3O[C@H](C(C)N)CC[C@H]3N)[C@@H](N)C[C@H]2N)OC[C@]1(C)O.CN[C@@H]1[C@@H](O)[C@@H](O[C@@H]2[C@@H](O)[C@H](O[C@H]3O[C@H](CN)CC[C@H]3N)[C@@H](N)C[C@H]2N)OC[C@]1(C)O (stereo not given in full)
MIC (Staphylococcus aureus [35]): 128 µM | MIC (Staphylococcus aureus [36]): 128 µM | MIC (Staphylococcus aureus [29]): 128 µM | MIC (Staphylococcus aureus [30]): 16 µM | MIC [31]: 1 µM | fold change (FC) (Staphylococcus aureus [37]): 256 | MIC (Staphylococcus aureus [38]): > 128 µM | MIC (Staphylococcus aureus [39]): > 128 µM | MIC (Staphylococcus aureus [33]): 16 µM | Activity (Staphylococcus aureus [34]): Active | MIC (Staphylococcus aureus [40]): 128 µM | MIC (Staphylococcus aureus [41]): 128 µM | fold change (FC) (Staphylococcus aureus [42]): 64 | Activity (Staphylococcus aureus [43]): Active | MIC (Enterococcus faecalis): 16 µM

Reference: ChEMBL document CHEMBL6114969, “Ultra-short lipopeptides containing d-amino acid exhibiting excellent stability and antibacterial activity against gram-positive bacteria” (Eur J Med Chem, 2025)
